From US20230038929A1, “Fused Tricyclic Heterocyclic Compounds and Uses Thereof” (Verge Analytics, Inc., priority 2019, published 2023) come the findings set out here.

Each structure is given as a SMILES string. Where a name gives a salt, the structure may show the parent alone. Read-outs that look alike come from different tables or passages of the source. A value given as a limit tells only on which side of the number the result lay.

The target of one experiment is T1, PI3Kδ (p110δ/p85α) (Homo sapiens, UniProt O00329).
T1 construct: Full-length N-terminal GST-; GST (N); host or cells: SF9 cells (baculovirus)
The format is biochemical.

A further experiment deals with T2, PI3Kα (p110α/p85α) (Homo sapiens, UniProt P42336).
T2 construct: Full-length N-terminal; FLAG (N); host or cells: SF9 cells (baculovirus)
The format is biochemical.

Another experiment concerns the target T3, PI3Kβ (p110β/p85α) (Homo sapiens, UniProt P42338).
T3 construct: Full-length N-terminal GST-; GST (N); host or cells: SF9 cells (baculovirus)
The format is biochemical.

The target in experiment [1] is T4, Full length human recombinant PIKFYVE (Homo sapiens, UniProt Q9Y2I7, L932S/Q1183K/Q995L/S1033A/S696N/T998S).
T4 construct: Full length human recombinant PIKFYVE; purchased Carna Biosciences (Kobe, Japan); host or cells: baculovirus expression system (insect cells)
Description: Inhibition of PIKfyve (microfluidic electrophoresis kinase assay). The format is biochemical. The method, then:
Biological Example 1: Inhibition of PIKfyve
Full length human recombinant PIKFYVE expressed in baculovirus expression system as N-terminal GST-fusion protein (265 kDa) was obtained from Carna Biosciences (Kobe, Japan). The kinase substrate was prepared by mixing and sonicating fluorescently-labeled phosphatidylinositol 3-phosphate (PI3P) with phospho-L-serine (PS) at a 1:10 ratio in 50 mM HEPES buffer pH7.5.
The kinase reactions were assembled in 384-well plates (Greiner) in a total volume of […] as follows. Kinase protein was pre-diluted in an assay buffer comprising 25 mM HEPES, pH 7.5, 1 mM DTT, 2.5 mM MgCl2, and 2.5 mM MnCl2, and 0.005% Triton X-100, and dispensed into a 384-well plate (10 μL per well). Test compounds were serially pre-diluted in DMSO and added to the protein samples by acoustic dispensing (Labcyte Echo). The concentration of DMSO was equalized to 1% in all samples. All test compounds were tested at 12 concentrations. Apilimod was used as a reference compound and was tested in identical manner in each assay plate. Control samples (0%-inhibition, in the absence of inhibitor, DMSO only) and 100%-inhibition (in the absence of enzyme) were assembled in replicates of four and were used to calculate %-inhibition in the presence of compounds. The reactions were initiated by addition of 10 μL of 2× PI3P/PS substrate supplemented with ATP. The final concentration of enzyme was 2 nM, the final concentration of ATP was […], and the final concentration of PI3P/PS substrate was 1 μM (PI3P). The kinase reactions were allowed to proceed for 3 h at room temperature. Following incubation, the reactions were quenched by addition of […] of termination buffer (100 mM HEPES, pH 7.5, 0.01% Triton X-100, 20 mM EDTA). Terminated plates were analyzed on a microfluidic electrophoresis instrument (Caliper LabChip® 3000, Caliper Life Sciences/Perkin Elmer). The change in the relative fluorescence intensity of the PI(3)P substrate and PI(3,5)P product peaks was measured. The activity in each test sample was determined as the product to sum ratio (PSR): P/(S+P), where P is the peak height of the product, and S is the peak height of the substrate. Percent inhibition (Pinh) was determined using the following equation:
Pinh=(PSR0%inh−PSRcompound)/(PSR0%inh−P100%inh)*100
in which PSRcompound is the product/sum ratio in the presence of compound, PSR0%inh is the product/sum ratio in the absence of compound, and the PSR100%inh is the product/sum ratio in the absence of the enzyme. To determine the ICso of test compounds (50%-inhibition) the %-inh cdata (Pinh versus compound concentration) were fitted by a four-parameter sigmoid dose-response model using XLfit software (IDBS).

The subject of experiment [2] is ALS patient (SOD1 A4V) iPSC derived motor neurons. As to the kind of experiment: iPSC MN Survival assay (IPSC-SOD1). The format is cell-based, human. The settings on record: nutrient deprived media (HBSS), six days, maximal reduction in hazard ratio, <1.0 increased survival. The method, then:
Biological Example 4: iPSC MN Survival assay
Fibroblasts from ALS patients with known SOD1 A4V mutation were reprogrammed into inducible pluripotent stem cells (iPSC) and then differentiated to motor neurons. In culture, ALS patient derived motor neurons show increased death rate compared to motor neurons derived from healthy individuals in a stressed condition (nutrient deprived media, Hank's buffered salt solution—HBSS). […] Cell rescue was measured following more than two different concentrations of each compound for six days with greater than four replicates in a 96-well format to ensure studies with power >0.8. Cells are transduced with a GFP reporter and imaged once a day to track survival. A broad-spectrum caspase inhibitor served as the positive control.
Microscopy image-based readout: Cells are transduced with a GFP reporter and imaged once a day with a blue laser to track survival. Imagers used include the Biotek Cytation 5 and Thermo Fisher EVOS Auto FL 2. All Images undergo uniform processing consisting of rolling hat background subtraction and contrast adjustment. Microscopy images are analyzed using software proprietary to Verge. Cells are identified by their shape and each cell is tracked across images and time points for each well. Survival is visually assessed from the Kaplan-Meier curves. Survival of the cells is modeled and tested using a mixed effects Cox regression where each well is modeled as the random effect, and the group (control/treatment) as the fixed effect. […]. Data are presented in Table 7 as the maximal reduction in hazard ratio scores measured at various concentrations.

The next experiment concerns IPSC-C9 motor neurons. As to the kind of experiment: iPSC MN Survival assay (IPSC-C9). The format is cell-based, human. The conditions noted are these: maximal reduction in hazard ratio vs control at various concentrations; <1.0 increased survival, >1.0 decreased survival.
Setting [3] is: 0.25 nM enzyme, ATP 90 μM, 1 μM PIP2, 3 h room temperature, read-out: PI3Kδ IC50.
Where [4] appears, read: 0.5 nM enzyme, ATP 90 μM, 1 μM PIP2, 3 h room temperature, read-out: PI3Kα IC50.
Setting [5] is: 1 nM enzyme, ATP 60 μM, 1 μM PIP2, 3 h room temperature, read-out: PI3Kβ IC50.
Where [6] appears, read: 2 nM enzyme, 1 μM PI3P, 3 h at room temperature, 12 concentrations, read-out: PIKfyve IC50.

T1 sequence (O00329 whole entry): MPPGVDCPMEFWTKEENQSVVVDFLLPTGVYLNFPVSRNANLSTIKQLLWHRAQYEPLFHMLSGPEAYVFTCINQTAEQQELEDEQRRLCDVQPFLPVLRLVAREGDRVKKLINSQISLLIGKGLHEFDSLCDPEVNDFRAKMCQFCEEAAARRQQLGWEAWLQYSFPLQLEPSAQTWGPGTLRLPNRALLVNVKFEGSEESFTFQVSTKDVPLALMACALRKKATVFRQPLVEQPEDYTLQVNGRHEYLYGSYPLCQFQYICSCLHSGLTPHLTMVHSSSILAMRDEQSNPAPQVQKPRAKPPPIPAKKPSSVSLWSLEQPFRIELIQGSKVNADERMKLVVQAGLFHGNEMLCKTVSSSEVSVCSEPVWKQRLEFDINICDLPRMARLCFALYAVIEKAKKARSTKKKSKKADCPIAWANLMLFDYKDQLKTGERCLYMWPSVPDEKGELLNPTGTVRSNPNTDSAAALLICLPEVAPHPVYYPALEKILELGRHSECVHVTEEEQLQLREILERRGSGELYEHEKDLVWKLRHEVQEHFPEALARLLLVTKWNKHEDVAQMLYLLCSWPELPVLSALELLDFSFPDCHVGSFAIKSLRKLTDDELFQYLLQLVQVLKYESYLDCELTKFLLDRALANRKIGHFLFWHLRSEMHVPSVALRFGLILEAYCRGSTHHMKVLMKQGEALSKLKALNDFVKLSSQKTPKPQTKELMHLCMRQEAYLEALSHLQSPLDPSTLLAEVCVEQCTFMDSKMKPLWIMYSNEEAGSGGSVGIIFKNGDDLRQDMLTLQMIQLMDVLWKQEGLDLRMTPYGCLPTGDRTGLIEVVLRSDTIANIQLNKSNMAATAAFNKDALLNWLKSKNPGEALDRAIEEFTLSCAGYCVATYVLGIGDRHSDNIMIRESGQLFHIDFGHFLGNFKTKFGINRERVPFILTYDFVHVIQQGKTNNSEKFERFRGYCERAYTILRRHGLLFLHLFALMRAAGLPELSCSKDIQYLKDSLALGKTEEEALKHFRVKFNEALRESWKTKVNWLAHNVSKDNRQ
T1 sequence (P27986 whole entry, further chain): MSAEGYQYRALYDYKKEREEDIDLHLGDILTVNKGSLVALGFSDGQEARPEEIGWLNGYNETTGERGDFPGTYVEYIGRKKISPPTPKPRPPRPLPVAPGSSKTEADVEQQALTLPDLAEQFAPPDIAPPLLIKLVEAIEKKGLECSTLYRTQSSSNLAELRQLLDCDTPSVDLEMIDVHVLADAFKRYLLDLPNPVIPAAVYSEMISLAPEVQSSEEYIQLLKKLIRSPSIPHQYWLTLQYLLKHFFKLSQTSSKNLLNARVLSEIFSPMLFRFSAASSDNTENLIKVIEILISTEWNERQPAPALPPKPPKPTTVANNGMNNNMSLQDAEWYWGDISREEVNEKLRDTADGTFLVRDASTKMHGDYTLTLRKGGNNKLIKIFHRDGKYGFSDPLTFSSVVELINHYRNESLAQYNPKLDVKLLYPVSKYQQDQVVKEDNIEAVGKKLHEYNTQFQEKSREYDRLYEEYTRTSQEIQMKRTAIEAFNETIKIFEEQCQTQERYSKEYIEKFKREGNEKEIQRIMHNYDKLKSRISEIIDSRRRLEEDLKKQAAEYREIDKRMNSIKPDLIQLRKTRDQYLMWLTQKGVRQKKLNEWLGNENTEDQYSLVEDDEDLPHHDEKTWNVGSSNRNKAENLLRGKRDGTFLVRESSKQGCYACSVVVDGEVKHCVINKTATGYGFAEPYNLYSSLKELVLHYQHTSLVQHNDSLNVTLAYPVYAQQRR
T2 sequence (P42336 whole entry): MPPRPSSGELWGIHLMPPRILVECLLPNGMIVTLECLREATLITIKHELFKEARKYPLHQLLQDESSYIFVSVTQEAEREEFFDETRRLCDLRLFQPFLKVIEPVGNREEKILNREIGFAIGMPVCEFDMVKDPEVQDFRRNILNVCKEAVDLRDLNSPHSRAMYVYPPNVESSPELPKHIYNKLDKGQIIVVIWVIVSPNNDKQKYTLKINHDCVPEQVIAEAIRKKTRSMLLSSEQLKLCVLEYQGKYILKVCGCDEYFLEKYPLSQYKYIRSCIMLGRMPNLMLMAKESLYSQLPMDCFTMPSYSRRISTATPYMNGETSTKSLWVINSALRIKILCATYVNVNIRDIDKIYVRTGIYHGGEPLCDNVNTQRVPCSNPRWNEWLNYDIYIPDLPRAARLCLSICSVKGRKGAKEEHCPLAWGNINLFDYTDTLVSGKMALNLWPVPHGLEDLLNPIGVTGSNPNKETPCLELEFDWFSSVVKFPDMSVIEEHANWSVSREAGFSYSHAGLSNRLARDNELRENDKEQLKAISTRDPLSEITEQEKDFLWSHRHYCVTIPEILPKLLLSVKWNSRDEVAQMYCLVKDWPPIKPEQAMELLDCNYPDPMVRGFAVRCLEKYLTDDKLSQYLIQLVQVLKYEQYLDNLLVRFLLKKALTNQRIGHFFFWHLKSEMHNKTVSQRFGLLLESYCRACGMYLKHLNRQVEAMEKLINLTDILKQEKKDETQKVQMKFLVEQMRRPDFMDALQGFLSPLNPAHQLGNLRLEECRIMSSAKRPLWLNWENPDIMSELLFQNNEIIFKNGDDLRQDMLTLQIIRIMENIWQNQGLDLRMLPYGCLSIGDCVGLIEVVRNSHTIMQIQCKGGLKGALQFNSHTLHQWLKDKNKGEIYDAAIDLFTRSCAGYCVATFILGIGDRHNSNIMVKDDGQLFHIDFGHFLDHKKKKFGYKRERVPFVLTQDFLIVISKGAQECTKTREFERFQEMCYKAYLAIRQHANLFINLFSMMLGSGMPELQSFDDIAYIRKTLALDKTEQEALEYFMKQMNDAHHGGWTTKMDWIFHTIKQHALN
T2 sequence (P27986 whole entry, further chain): as the sequence (P27986 whole entry, further chain) above
T4 sequence (Q9Y2I7 whole entry S696N/L932S/Q995L/T998S/S1033A/Q1183K): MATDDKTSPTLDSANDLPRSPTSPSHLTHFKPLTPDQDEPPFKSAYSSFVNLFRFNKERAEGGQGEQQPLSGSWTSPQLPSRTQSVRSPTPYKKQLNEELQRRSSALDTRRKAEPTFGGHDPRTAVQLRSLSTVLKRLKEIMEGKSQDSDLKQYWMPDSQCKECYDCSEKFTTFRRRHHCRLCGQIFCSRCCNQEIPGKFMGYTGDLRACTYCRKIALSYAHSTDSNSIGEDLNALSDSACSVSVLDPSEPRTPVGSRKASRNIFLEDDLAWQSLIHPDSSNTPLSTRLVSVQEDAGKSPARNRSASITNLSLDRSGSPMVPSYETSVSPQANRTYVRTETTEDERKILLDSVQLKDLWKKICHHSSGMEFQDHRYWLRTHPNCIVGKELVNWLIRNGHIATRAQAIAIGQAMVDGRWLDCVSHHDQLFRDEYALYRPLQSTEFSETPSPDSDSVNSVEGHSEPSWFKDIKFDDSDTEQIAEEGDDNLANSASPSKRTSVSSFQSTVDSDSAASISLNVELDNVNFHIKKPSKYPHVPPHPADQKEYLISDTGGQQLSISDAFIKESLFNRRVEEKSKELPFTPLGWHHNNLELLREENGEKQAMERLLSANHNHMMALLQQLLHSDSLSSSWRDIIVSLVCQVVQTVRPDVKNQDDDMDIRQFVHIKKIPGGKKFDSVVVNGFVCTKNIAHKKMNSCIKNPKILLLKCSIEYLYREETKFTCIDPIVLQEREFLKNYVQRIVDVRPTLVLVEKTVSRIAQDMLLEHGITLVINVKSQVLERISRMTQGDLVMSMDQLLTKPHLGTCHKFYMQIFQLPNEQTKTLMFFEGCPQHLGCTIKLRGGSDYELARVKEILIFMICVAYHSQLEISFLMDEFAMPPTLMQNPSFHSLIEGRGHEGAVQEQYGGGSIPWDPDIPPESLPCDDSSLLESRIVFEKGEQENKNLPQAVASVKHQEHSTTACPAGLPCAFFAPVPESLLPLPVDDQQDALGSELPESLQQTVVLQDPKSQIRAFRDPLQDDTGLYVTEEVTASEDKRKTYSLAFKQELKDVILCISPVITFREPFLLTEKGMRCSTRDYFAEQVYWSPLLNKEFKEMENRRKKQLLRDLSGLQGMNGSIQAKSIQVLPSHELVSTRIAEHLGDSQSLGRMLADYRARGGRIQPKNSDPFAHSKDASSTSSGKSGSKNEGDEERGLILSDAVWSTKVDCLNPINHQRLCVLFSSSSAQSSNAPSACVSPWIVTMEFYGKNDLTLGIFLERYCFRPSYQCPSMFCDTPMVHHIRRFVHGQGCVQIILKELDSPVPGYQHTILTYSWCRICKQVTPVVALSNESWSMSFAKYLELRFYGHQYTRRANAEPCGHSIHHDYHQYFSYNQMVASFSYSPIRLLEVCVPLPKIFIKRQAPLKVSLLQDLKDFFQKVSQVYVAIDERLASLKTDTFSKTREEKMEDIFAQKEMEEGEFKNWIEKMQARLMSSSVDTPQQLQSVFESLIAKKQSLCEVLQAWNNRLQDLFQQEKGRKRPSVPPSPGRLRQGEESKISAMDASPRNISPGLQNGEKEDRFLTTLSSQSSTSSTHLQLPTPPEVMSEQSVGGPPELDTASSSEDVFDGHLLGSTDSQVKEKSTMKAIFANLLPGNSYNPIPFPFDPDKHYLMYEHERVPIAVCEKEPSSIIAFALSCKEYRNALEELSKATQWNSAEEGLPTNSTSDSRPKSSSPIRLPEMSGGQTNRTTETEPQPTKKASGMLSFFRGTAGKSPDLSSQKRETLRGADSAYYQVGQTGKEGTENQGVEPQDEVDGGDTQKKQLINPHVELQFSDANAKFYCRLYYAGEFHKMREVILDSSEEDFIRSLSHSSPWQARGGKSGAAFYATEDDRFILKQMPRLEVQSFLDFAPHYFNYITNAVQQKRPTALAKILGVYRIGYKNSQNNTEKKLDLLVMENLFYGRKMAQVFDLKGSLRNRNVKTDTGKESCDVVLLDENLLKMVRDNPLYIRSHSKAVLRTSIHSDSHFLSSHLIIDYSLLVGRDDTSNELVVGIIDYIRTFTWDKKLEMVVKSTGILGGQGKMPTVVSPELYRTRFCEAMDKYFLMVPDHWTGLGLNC

As for `c1cnc2oc3c(N4CCOCC4)nc(Nc4cc(C5CCC5)n[nH]4)nc3c2c1` [Example 55, N-(3-cyclobutyl-1H-pyrazol-5-yl)-4-morpholinopyrido[3′,2′:4,5]furo[3,2-d]pyrimidin-2-amine hydrochloride], the IC50 on PI3Kδ (p110δ/p85α) (setting [3]) was 7 nM; on PI3Kα (p110α/p85α) (setting [4]) it was 16 nM; at PI3Kβ (p110β/p85α) (setting [5]) it was 315 nM; in experiment [1] (setting [6]) it was 1280 nM.

As for `Cc1cccc(-c2cc(Nc3nc(N4CCOCC4)c4oc5ncccc5c4n3)[nH]n2)c1` [Example 49, 4-morpholino-N-(3-(m-tolyl)-1H-pyrazol-5-yl)pyrido[3′,2′:4,5]furo[3,2-d]pyrimidin-2-amine], the “IPSC-SOD1 (Hazard Ratio)” value in experiment [2] is 1.03. In addition, the “IPSC-C9 (Hazard Ratio)” value with IPSC-C9 motor neurons came to 1.2. The IC50 in experiment [1] (setting [6]) stood at 38 nM.

As to `Cn1ccnc1Nc1nc(N2CCOCC2)c2oc3ncccc3c2n1` [Example 12, N-(1-Methyl-1H-imidazol-2-yl)-4-morpholinopyrido[3′,2′:4,5]furo[3,2-d]pyrimidin-2-amine], the IC50 at PI3Kδ (p110δ/p85α) (setting [3]) was 1890 nM; on PI3Kα (p110α/p85α) (setting [4]), 1640 nM; on PI3Kβ (p110β/p85α) (setting [5]), 6540 nM; in experiment [1] (setting [6]), over 10000 nM.

Turning to `c1cnc2oc3c(N4CCOCC4)nc(Nc4cncnc4)nc3c2c1` [Example 43, 4-morpholino-N-(pyrimidin-5-yl)pyrido[3′,2′:4,5]furo[3,2-d]pyrimidin-2-amine], the “IPSC-SOD1 (Hazard Ratio)” value in experiment [2] is reported as 1.1. For the same compound, the “IPSC-C9 (Hazard Ratio)” value in the experiment with IPSC-C9 motor neurons is 1.06. Also, the IC50 in experiment [1] (setting [6]) is over 10000 nM.

Take `O=C(Nc1nc(N2CCOCC2)c2oc3ncccc3c2n1)Oc1ccccc1` [Example 22, phenyl(4-morpholinopyrido[3′,2′:4,5]furo[3,2-d]pyrimidin-2-yl)carbamate hydrochloride]: the IC50 against PI3Kδ (p110δ/p85α) stood at 464 nM; at PI3Kα (p110α/p85α), 802 nM; at PI3Kβ (p110β/p85α) it was 2700 nM; in experiment [1] it was 6400 nM.

As for `c1ccc(Nc2nc(N3CCOCC3)c3oc4ncccc4c3n2)nc1` [Example 40, 4-morpholino-N-(pyridin-2-yl)pyrido[3′,2′:4,5]furo[3,2-d]pyrimidin-2-amine], the IC50 on PI3Kδ (p110δ/p85α) (setting [3]) was 66 nM; at PI3Kα (p110α/p85α) (setting [4]), 102 nM; on PI3Kβ (p110β/p85α) (setting [5]), 1190 nM; in experiment [1] (setting [6]), 2770 nM.

For the compound `c1cnc2oc3c(N4CCOCC4)nc(Nc4cc(CC5CCC5)n[nH]4)nc3c2c1` [Example 56, N-(3-(cyclobutylmethyl)-1H-pyrazol-5-yl)-4-morpholinopyrido[3′,2′:4,5]furo[3,2-d]pyrimidin-2-amine hydrochloride], the IC50 came out at 24 nM on PI3Kδ (p110δ/p85α) (setting [3]), 47 nM on PI3Kα (p110α/p85α) (setting [4]), 937 nM at PI3Kβ (p110β/p85α) (setting [5]) and 1790 nM in experiment [1] (setting [6]).

`c1cncc(Nc2nc(N3CCOCC3)c3oc4ncccc4c3n2)c1` [Example 39, 4-morpholino-N-(pyridin-3-yl)pyrido[3′,2′:4,5]furo[3,2-d]pyrimidin-2-amine]: the IC50 on PI3Kδ (p110δ/p85α) (setting [3]) stood at 60 nM; at PI3Kα (p110α/p85α) (setting [4]) it was 82 nM; at PI3Kβ (p110β/p85α) (setting [5]), 370 nM; in experiment [1] (setting [6]), 2180 nM.

With `Cl.c1cnc2oc3c(N4CCOCC4)nc(Nc4cc(-c5ccsc5)n[nH]4)nc3c2c1` [Example 61, 4-morpholino-N-(3-(thiophen-3-yl)-1H-pyrazol-5-yl)pyrido[3′,2′:4,5]furo[3,2-d]pyrimidin-2-amine hydrochloride], in the experiment with IPSC-C9 motor neurons, the “IPSC-C9 (Hazard Ratio)” value is given as 0.542. Further, in experiment [1] (setting [6]), the IC50 stood at 26 nM.

Take `c1cnc2oc3c(N4CCOCC4)nc(Nc4ccncc4)nc3c2c1` [Example 38, 4-morpholino-N-(pyridin-4-yl)pyrido[3′,2′:4,5]furo[3,2-d]pyrimidin-2-amine]: the IC50 on PI3Kδ (p110δ/p85α) (setting [3]) is 1490 nM; on PI3Kα (p110α/p85α) (setting [4]) it was 8740 nM; at PI3Kβ (p110β/p85α) (setting [5]), 5820 nM; in experiment [1] (setting [6]) it was over 10000 nM.

For the compound `c1ccc(CCNc2nc(N3CCOCC3)c3oc4ncccc4c3n2)cc1` [Example 21, 4-morpholino-N-phenethylpyrido[3′,2′:4,5]furo[3,2-d]pyrimidin-2-amine], the IC50 at PI3Kδ (p110δ/p85α) (setting [3]) worked out at 37.4 nM; at PI3Kα (p110α/p85α) (setting [4]) it was 158 nM; at PI3Kβ (p110β/p85α) (setting [5]) it was 243 nM; in experiment [1] (setting [6]), 988 nM.

Regarding `Cc1cc(Nc2nc(N3CCOCC3)c3oc4ncccc4c3n2)[nH]n1` [Example 8, N-(3-Methyl-1H-pyrazol-5-yl)-4-morpholinopyrido[3′,2′:4,5]furo[3,2-d]pyrimidin-2-amine], the IC50 came out at 23.9 nM at PI3Kδ (p110δ/p85α) (setting [3]), 161 nM at PI3Kα (p110α/p85α) (setting [4]), 306 nM at PI3Kβ (p110β/p85α) (setting [5]) and 2200 nM in experiment [1] (setting [6]).

As for `Cc1cc(Nc2nc(N3CCOCC3)c3oc4ncccc4c3n2)nn1C` [Example 47, N-(1,5-dimethyl-1H-pyrazol-3-yl)-4-morpholinopyrido[3′,2′:4,5]furo[3,2-d]pyrimidin-2-amine], the IC50 is 54 nM on PI3Kδ (p110δ/p85α) (setting [3]), 82 nM on PI3Kα (p110α/p85α) (setting [4]), 2630 nM at PI3Kβ (p110β/p85α) (setting [5]) and 4320 nM in experiment [1] (setting [6]). In addition, in experiment [2], the “IPSC-SOD1 (Hazard Ratio)” value amounted to 1.1.

Turning to `FC(F)(F)c1cc(Nc2nc(N3CCOCC3)c3oc4ncccc4c3n2)[nH]n1` [Example 57, 4-morpholino-N-(3-(trifluoromethyl)-1H-pyrazol-5-yl)pyrido[3′,2′:4,5]furo[3,2-d]pyrimidin-2-amine hydrochloride], in experiment [1] (setting [6]), the IC50 worked out at 5900 nM.

As to `C[C@H](Nc1nc(N2CCOCC2)c2oc3ncccc3c2n1)C1CC1` [Example 36, (S)-N-(1-cyclopropylethyl)-4-morpholinopyrido[3′,2′:4,5]furo[3,2-d]pyrimidin-2-amine], the IC50 is 77 nM on PI3Kδ (p110δ/p85α) (setting [3]), 77 nM at PI3Kα (p110α/p85α) (setting [4]), 749 nM on PI3Kβ (p110β/p85α) (setting [5]) and over 10000 nM in experiment [1] (setting [6]).

`c1cnc2oc3c(N4CCOCC4)nc(Nc4cc(C5CCCC5)n[nH]4)nc3c2c1` [Example 59, N-(3-cyclopentyl-1H-pyrazol-5-yl)-4-morpholinopyrido[3′,2′:4,5]furo[3,2-d]pyrimidin-2-amine hydrochloride]: the IC50 in experiment [1] (setting [6]) came to 1290 nM.

On to `Fc1ccccc1-c1cc(Nc2nc(N3CCOCC3)c3oc4ncccc4c3n2)[nH]n1` [Example 15, N-(3-(2-fluorophenyl)-1H-pyrazol-5-yl)-4-morpholinopyrido[3′,2′:4,5]furo[3,2-d]pyrimidin-2-amine hydrochloride], for which the IC50 in experiment [1] (setting [6]) was 108 nM.

Turning to `c1ccc(-c2cccc(Nc3nc(N4CCOCC4)c4oc5ncccc5c4n3)c2)cc1` [Example 45, N-([1,1′-biphenyl]-3-yl)-4-morpholinopyrido[3′,2′:4,5]furo[3,2-d]pyrimidin-2-amine], the IC50 in experiment [1] (setting [6]) is 3980 nM.

As usually defined, the IC50 is the concentration that inhibits the measured activity by half.
